Assay results published in patent US20150175530A1, “ANTIBACTERIAL AGENTS” (priority 2012, published 2015).
In brackets after ≈: the same amount, converted by molar mass. Read-outs that look alike come from different tables or passages of the source.

What was measured:
[1] = tested on: 3 P. aeruginosa strains (APAE001, APAE002, APAE006); assay: Protein binding: fold change in MIC in the presence of 2% HSA and 0.05% AGP, Geomean of 3 strains; assay type: cell-based, Pseudomonas aeruginosa; details: MIC in the presence of 2% HSA and 0.05% AGP divided by MIC in the absence; Geomean of 3 P. aeruginosa strains (APAE001, APAE002, APAE006)
Method: The effect of human serum albumin (HSA) and α-1-acid glycoprotein (AGP) from human plasma, which are known to nonspecifically bind to certain antibiotics and thereby reduce their activity (Banéres-Roquet et al. 2009 “Use of a Surface Plasmon Resonance Method to Investigate Antibiotic and Plasma Protein Interactions” Antimicrob. Agents and Chemother. 53(4):1528-1531), was assessed against 3 P. aeruginosa strains (APAE001, APAE002, APAE006). APAE001 is Pseudomonas aeruginosa ATCC27853; APAE002 is a wildtype lab strain of Pseudomonas aeruginosa known as PAM1020 or PA01. APAE006 is a strain of […]/PA01 with efflux deletions: delta mexAB-oprM::CM delta CD-oprJ::Gm delta mexEF-oprN::omega Hg. Lomovskaya, 0 et al. 1999. Use of a Genetic Approach To Evaluate the Consequences of Inhibition of Efflux Pumps in P aeruginosa. Antimicrob. Agents Chemother. 43: 1340-1346.
The standard procedure described in Susceptibility Testing was utilized with one adjustment, specifically 2% HSA and 0.05% AGP were added to the cation adjusted Mueller-Hinton Broth. The MIC for each strain of interest was then assessed in the presence and absence of HSA/AGP. Following MIC determination, the fold change in MIC was determined for each individual strain by dividing the MIC in the presence of HSA/AGP by the MIC in the absence of HSA/AGP. The protein binding Geomean was then calculated using these 3 values.

[2] = tested on: bacterial isolates (clinical isolates and ATCC quality control strains); assay: Minimum Inhibitory Concentrations (MICs) by broth microdilution (CLSI susceptibility testing); assay type: cell-based; details: for Minimum Inhibitory Concentrations (MICs) APAE001: APAE001 is Pseudomonas aeruginosa ATCC27853
Method: Bacterial isolates were cultivated from −70° C. frozen stocks by overnight passages at 35° C. in ambient air on Mueller-Hinton agar (Beckton Dickinson, Franklin Lakes, N.J.). Clinical isolates tested were obtained from various geographically diverse hospitals in the US and abroad (Focus Diagnostics, Herndon, Va. and JMI, North Liberty, Iowa). Quality control strains were from the American Type Culture Collection (ATCC; Rockville, Md.).
Minimum Inhibitory Concentrations (MICs) were determined by the broth microdilution method in accordance with the Clinical and Laboratory Standards Institute (CLSI) guidelines. In brief, organism suspensions were adjusted to a 0.5 McFarland standard to yield a final inoculum between 3×10^5 and 7×10^5 colony-forming units (CFU)/mL. Drug dilutions and inocula were made in sterile, cation adjusted Mueller-Hinton Broth (Beckton Dickinson). An inoculum volume of 100 μL was added to wells containing 100 μL of broth with 2-fold serial dilutions of drug. All inoculated microdilution trays were incubated in ambient air at 35° C. for 18-24 h. Following incubation, the lowest concentration of the drug that prevented visible growth (OD600 nm<0.05) was recorded as the MIC. Performance of the assay was monitored by the use of laboratory quality-control strains and levofloxacin, a compound with a defined MIC spectrum, in accordance with CLSI guidelines.

[3] = APAE1096 is a clinical isolate, broth microdilution, read-out: Minimum Inhibitory Concentrations (MICs) APAE1096
[4] = Pseudomonas aeruginosa, APAE002 is a wildtype lab strain of Pseudomonas aeruginosa known as PAM1020 or PA01, broth microdilution, read-out: Minimum Inhibitory Concentrations (MICs) APAE002
[5] = Pseudomonas aeruginosa, ATCC27853, APAE001 is Pseudomonas aeruginosa ATCC27853, broth microdilution, read-out: Minimum Inhibitory Concentrations (MICs) APAE001
[6] = APAE1096 is a clinical isolate, broth microdilution
[7] = APAE002 is a wildtype lab strain of Pseudomonas aeruginosa known as PAM1020 or PA01, broth microdilution

Question: Which “Protein Binding PB (Geomean of fold change in MIC)” value [1] does the source give for `CC(C)(N)[C@H](NC(=O)c1ccc(C#CC#CC2C[C@H]2C(O)CO)cc1)C(=O)NO` (mixture of isomers) [Compound 25, N—((S)-3-amino-1-(hydroxyamino)-3-methyl-1-oxobutan-2-yl)-4-((2-(1,2-dihydroxyethyl)cyclopropyl)buta-1,3-diynyl)benzamide] here?
Answer: The value was 11.5.

Question: What about the MIC [2, 3] of the same molecule?
Answer: Its MIC is 1 to 8 µg/mL (≈ 2.5 to 20 µM).

Question: And the MIC [2, 4]?
Answer: Its MIC is less than 1 µg/mL.

Question: What about the MIC [2, 5] of the same molecule?
Answer: The MIC was less than 1 µg/mL.

Question: How did the “Protein Binding PB (Geomean of fold change in MIC)” value [1] turn out when `CC(C#CC#Cc1ccc(C(=O)N[C@H](C(=O)NO)C(C)(C)N)cc1)C(O)CO` (single isomer, unassigned) [Compound 20A] was run?
Answer: Its value is 2.0.

Question: What about the MIC [2, 3] of the same molecule?
Answer: The MIC was 8 to 16 µg/mL (≈ 20.6 to 41.3 µM).

Question: And the MIC [2, 4]?
Answer: Its MIC is 1 to 8 µg/mL (≈ 2.58 to 20.6 µM).

Question: And the MIC [2, 5]?
Answer: Its MIC is 1 to 8 µg/mL (≈ 2.58 to 20.6 µM).

Question: Which “Protein Binding PB (Geomean of fold change in MIC)” value [1] does the source give for `CC(C#CC#Cc1ccc(C(=O)N[C@H](C(=O)NO)C(C)(C)N)cc1)C(O)CO` (single isomer, unassigned) [Compound 20B] here?
Answer: The value was 1.0.

Question: With `CC(C)(N)[C@H](NC(=O)c1ccc(C#CC#CC2C[C@H](O)[C@@H]2CO)cc1)C(=O)NO` (single isomer, unassigned) [Compound 30A] as the molecule, how does the “Protein Binding PB (Geomean of fold change in MIC)” value [1] read?
Answer: The value was 2.5.

Question: And the “Minimum Inhibitory Concentrations (MICs) APAE1096” value [2, 6]?
Answer: The value was “C (C = MIC's of greater than 8.0 μg/mL to 16.0 μg/mL)”.

Question: What about the MIC [2, 4] of the same molecule?
Answer: Its MIC is less than 1 µg/mL.

Question: And the MIC [2, 5]?
Answer: Its MIC is less than 1 µg/mL.

Question: With `CC(C)(N)[C@H](NC(=O)c1ccc(C#CC#CC2CC(O)[C@@H]2CO)cc1)C(=O)NO` (single isomer, unassigned) [Compound 30B] as the molecule, how does the “Protein Binding PB (Geomean of fold change in MIC)” value [1] read?
Answer: The value was 3.2.

Question: And the “Minimum Inhibitory Concentrations (MICs) APAE001” value ([2]; broth microdilution)?
Answer: The value was “A (A = MIC's of 1.0 μg/mL or less)”.

Question: What about the “Minimum Inhibitory Concentrations (MICs) APAE002” value [2, 7] of the same molecule?
Answer: Its value is “A (A = MIC's of 1.0 μg/mL or less)”.

Question: And the “Minimum Inhibitory Concentrations (MICs) APAE1096” value [2, 6]?
Answer: The value was “B (B = MIC's of greater than 1.0 μg/mL to 8.0 μg/mL)”.

Question: With `CC(C)(N)[C@H](NC(=O)c1ccc(C#CC#CC2C[C@@H](O)[C@H]2CO)cc1)C(=O)NO` (single isomer, unassigned) [Compound 31A] as the molecule, how does the “Protein Binding PB (Geomean of fold change in MIC)” value [1] read?
Answer: Its value is 2.5.

Question: And the “Minimum Inhibitory Concentrations (MICs) APAE1096” value [2, 6]?
Answer: Its value is “C (C = MIC's of greater than 8.0 μg/mL to 16.0 μg/mL)”.

Question: And the MIC [2, 4]?
Answer: The MIC was 1 to 8 µg/mL (≈ 2.5 to 20 µM).

Question: What about the MIC [2, 5] of the same molecule?
Answer: Its MIC is 1 to 8 µg/mL (≈ 2.5 to 20 µM).

Question: With `CC(C)(N)[C@H](NC(=O)c1ccc(C#CC#CC2CC(O)[C@H]2CO)cc1)C(=O)NO` (single isomer, unassigned) [Compound 31B] as the molecule, how does the “Protein Binding PB (Geomean of fold change in MIC)” value [1] read?
Answer: The value was 3.2.

Question: And the “Minimum Inhibitory Concentrations (MICs) APAE001” value ([2]; broth microdilution)?
Answer: The value was “A (A = MIC's of 1.0 μg/mL or less)”.

Question: And the “Minimum Inhibitory Concentrations (MICs) APAE002” value [2, 7]?
Answer: The value was “A (A = MIC's of 1.0 μg/mL or less)”.

Question: What about the “Minimum Inhibitory Concentrations (MICs) APAE1096” value [2, 6] of the same molecule?
Answer: The value was “B (B = MIC's of greater than 1.0 μg/mL to 8.0 μg/mL)”.

Question: With `CC(C)(N)[C@H](NC(=O)c1ccc(C#CC#CCO)cc1)C(=O)NO` [Compound 1, (S)—N-(3-amino-1-(hydroxyamino)-3-methyl-1-oxobutan-2-yl)-4-(5-hydroxypenta-1,3-diynyl)benzamide] as the molecule, how does the “Protein Binding PB (Geomean of fold change in MIC)” value [1] read?
Answer: The value was 4.1.

Question: And the MIC ([2]; Pseudomonas aeruginosa, ATCC27853, read-out: Minimum Inhibitory Concentrations (MICs) APAE001)?
Answer: The MIC was less than 1 µg/mL.

Question: What about the MIC ([2]; Pseudomonas aeruginosa, read-out: Minimum Inhibitory Concentrations (MICs) APAE002) of the same molecule?
Answer: The MIC was less than 1 µg/mL.

Question: What about the MIC ([2]; read-out: Minimum Inhibitory Concentrations (MICs) APAE1096) of the same molecule?
Answer: The MIC was less than 1 µg/mL.

Question: What does the source list for `CC(C)(N)[C@H](NC(=O)c1ccc(C#CCO)cc1)C(=O)NO` [Compound 2, (S)—N-(3-amino-1-(hydroxyamino)-3-methyl-1-oxobutan-2-yl)-4-(3-hydroxyprop-1-ynyl)benzamide]?
Answer: Protein Binding PB (Geomean of fold change in MIC) [1]: 1.3; MIC [2, 3]: 8 to 16 µg/mL (≈ 26.2 to 52.4 µM); MIC [2, 4]: 1 to 8 µg/mL (≈ 3.28 to 26.2 µM); MIC [2, 5]: < 1 µg/mL

Question: For `CC(C)(N)[C@H](NC(=O)c1ccc(C#C/C=C/CO)cc1)C(=O)NO` [Compound 3, (S,E)-N-(3-amino-1-(hydroxyamino)-3-methyl-1-oxobutan-2-yl)-4-(5-hydroxypent-3-en-1-ynyl)benzamide], which “Protein Binding PB (Geomean of fold change in MIC)” value [1] is on record?
Answer: The value was 1.3.

Question: What about the MIC [2, 3] of the same molecule?
Answer: Its MIC is 1 to 8 µg/mL (≈ 3.02 to 24.1 µM).

Question: And the MIC [2, 4]?
Answer: The MIC was less than 1 µg/mL.

Question: What about the MIC [2, 5] of the same molecule?
Answer: The MIC was less than 1 µg/mL.
